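96-well plates; 48 h exposure; 5 concentrations. Endpoints by linear interpolation between flanking doses. Not reached: highest tested concentration assigned. GI50 = concentration required for 50% inhibition of growth. TGI is the concentration that stops growth completely.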
What was measured:
Test in all cases: NCI tumour cell line growth inhibition, 48 h
TK-10 renal = system: TK-10 renal
NCI-H226 lung = system: NCI-H226 lung
A549 NSCLC = system: A549 NSCLC
RXF 393 renal = system: RXF 393 renal
CCRF-CEM leukemia = system: CCRF-CEM leukemia
HOP-92 NSCLC = system: HOP-92 NSCLC
MDA-MB-231 breast = system: MDA-MB-231 breast
786-0 renal = system: 786-0 renal
UO-31 renal = system: UO-31 renal
A498 renal = system: A498 renal
MDA-MB-435 = system: MDA-MB-435
SNB-75 CNS = system: SNB-75 CNS
K-562 leukemia = system: K-562 leukemia
DU-145 prostate = system: DU-145 prostate
UACC-62 melanoma = system: UACC-62 melanoma
PC-3 prostate = system: PC-3 prostate
U251 CNS = system: U251 CNS
HCT-116 colon = system: HCT-116 colon
RPMI-8226 leukemia = system: RPMI-8226 leukemia
BT-549 breast = system: BT-549 breast
T-47D breast = system: T-47D breast
MCF7 breast = system: MCF7 breast
OVCAR-8 ovarian = system: OVCAR-8 ovarian
M14 melanoma = system: M14 melanoma
MOLT-4 leukemia = system: MOLT-4 leukemia
SNB-19 CNS = system: SNB-19 CNS
OVCAR-4 ovarian = system: OVCAR-4 ovarian
IGROV1 ovarian = system: IGROV1 ovarian
SK-MEL-2 melanoma = system: SK-MEL-2 melanoma

In the case of CC(C)(C)Nc1nc2c(OCCc3ccccc3)cccn2c1-c1ccc(Cl)cc1, the GI50 (TK-10 renal) is reported as 25.3 µM, the TGI (TK-10 renal) is reported as 79.5 µM and the GI50 (NCI-H226 lung) is reported as 18.1 µM. For the same molecule, the TGI (NCI-H226 lung) was 60 µM, the GI50 (A549 NSCLC) was 24 µM and the TGI (A549 NSCLC) was greater than 100 µM. For the same molecule, the GI50 (RXF 393 renal) was 13.4 µM, the TGI (RXF 393 renal) was 35.6 µM and the GI50 (CCRF-CEM leukemia) was 29.9 µM. The TGI (CCRF-CEM leukemia) was 97.2 µM, the GI50 (HOP-92 NSCLC) was 17.4 µM and the TGI (HOP-92 NSCLC) was 67.2 µM. It also gave a GI50 (MDA-MB-231 breast) of 16.7 µM, a TGI (MDA-MB-231 breast) of 35 µM and a GI50 (786-0 renal) of 19.4 µM. For the same molecule, the TGI (786-0 renal) was 45.2 µM, the GI50 (UO-31 renal) was 11.3 µM and the TGI (UO-31 renal) was 39.7 µM. It also gave a GI50 (A498 renal) of 15.2 µM, a TGI (A498 renal) of 62.1 µM and a GI50 (MDA-MB-435) of 30.3 µM. For the same molecule, the TGI (MDA-MB-435) was greater than 100 µM, the GI50 (SNB-75 CNS) was 17.6 µM and the TGI (SNB-75 CNS) was greater than 100 µM. The GI50 (K-562 leukemia) was 26.4 µM, the TGI (K-562 leukemia) was greater than 100 µM and the GI50 (DU-145 prostate) was 25 µM. The TGI (DU-145 prostate) was greater than 100 µM, the GI50 (UACC-62 melanoma) was 16 µM and the TGI (UACC-62 melanoma) was 38.3 µM. The GI50 (PC-3 prostate) was 25.3 µM, the TGI (PC-3 prostate) was greater than 100 µM and the GI50 (U251 CNS) was 18.7 µM. The TGI (U251 CNS) was 48.7 µM, the GI50 (HCT-116 colon) was 17.6 µM and the TGI (HCT-116 colon) was 43.4 µM. The GI50 (RPMI-8226 leukemia) was 20.8 µM, the TGI (RPMI-8226 leukemia) was 60.4 µM and the GI50 (BT-549 breast) was 19.6 µM. It also gave a TGI (BT-549 breast) of 49.5 µM, a GI50 (T-47D breast) of 17.7 µM and a TGI (T-47D breast) greater than 100 µM. The GI50 (MCF7 breast) was 21.1 µM, the TGI (MCF7 breast) was 93.5 µM and the GI50 (OVCAR-8 ovarian) was 27.1 µM. It also gave a TGI (OVCAR-8 ovarian) greater than 100 µM, a GI50 (M14 melanoma) of 26.3 µM and a TGI (M14 melanoma) of 71.2 µM. For the same molecule, the GI50 (MOLT-4 leukemia) was 18.3 µM, the TGI (MOLT-4 leukemia) was 95.5 µM and the GI50 (SNB-19 CNS) was 32.3 µM. For the same molecule, the TGI (SNB-19 CNS) was greater than 100 µM, the GI50 (OVCAR-4 ovarian) was 26.7 µM and the TGI (OVCAR-4 ovarian) was greater than 100 µM. For the same molecule, the GI50 (IGROV1 ovarian) was 25.7 µM, the TGI (IGROV1 ovarian) was greater than 100 µM and the GI50 (SK-MEL-2 melanoma) was 12.8 µM. For the same molecule, the TGI (SK-MEL-2 melanoma) was 28.8 µM.

From PubChem BioAssay (NCI)
